Measurements from US12098217B2, “Fusion peptides as antimicrobial agents” (CENTRE NATIONAL DE LA RECHERCHE SCIENTIFIQUE, priority 2019, dated 2024).
Like-named read-outs stand apart in the source and are kept apart here. Square brackets hold non-standard residues; d marks the D form. Peptide text beside a SMILES is read from it. Cha = N[C@@H](CC1CCCCC1)C(=O)O

What was measured:
[1] = biological target: T1, E. coli SC (^EcSC, beta ring, DnaN) (Escherichia coli, UniProt P0A988); assay: ITC, peptide interaction with E. coli sliding clamp; format: binding
T1 construct: inferred from the pET15b vector and the Ni-NTA/imidazole purification; made in house; host or cells: E. coli BL21 (DE3) pLys
T1 sequence (P0A988 whole entry): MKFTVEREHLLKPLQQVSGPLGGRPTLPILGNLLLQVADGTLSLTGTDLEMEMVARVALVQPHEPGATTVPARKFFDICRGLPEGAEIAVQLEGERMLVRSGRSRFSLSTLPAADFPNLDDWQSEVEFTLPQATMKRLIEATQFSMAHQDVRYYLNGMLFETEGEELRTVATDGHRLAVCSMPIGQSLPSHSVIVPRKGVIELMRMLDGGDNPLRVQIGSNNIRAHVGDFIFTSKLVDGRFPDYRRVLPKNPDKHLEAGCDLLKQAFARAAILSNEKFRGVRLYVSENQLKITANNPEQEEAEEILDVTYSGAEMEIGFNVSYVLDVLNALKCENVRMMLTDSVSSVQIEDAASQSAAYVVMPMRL

Human PCNA = Human PCNA (Homo sapiens, UniProt P12004); assay: ITC, peptide interaction with human PCNA; format: binding; conditions: ITC 30° C.
Sequence of Human PCNA (P12004 whole entry): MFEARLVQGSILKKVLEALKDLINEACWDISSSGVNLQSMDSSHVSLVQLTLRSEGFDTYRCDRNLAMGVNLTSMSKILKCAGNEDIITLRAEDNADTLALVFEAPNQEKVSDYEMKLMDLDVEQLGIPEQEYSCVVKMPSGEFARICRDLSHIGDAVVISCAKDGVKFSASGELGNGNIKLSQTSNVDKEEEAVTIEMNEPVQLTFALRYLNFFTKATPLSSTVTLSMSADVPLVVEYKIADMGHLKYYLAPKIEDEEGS
Protocol: The inventors have compared the affinities of the prototypical P7 SC-binding peptide for the bacterial SC and for the eukaryotic functional homolog “Proliferating Cell Nuclear Antigen” PCNA. The same analysis was performed with the DPD1 peptide that contains a well-described specific PCNA Interacting Peptide (PIP) sequence ([…]).

[2] = test system: E. coli ATCC 25922 (DSM 1103) strain; format: cell-based; conditions: ATCC 25922, 36 h
Protocol: E. coli strains were cultivated on either agar or liquid 1× Mueller Hinton broth unless specified. MIC assays were performed in duplicate in 96-well microtiter plates on the basis of the protocol recommended by the Clinical and Laboratory Standards Institute. Briefly, a mix of 5-6 fresh (less than 36 hours) colonies grown on MH agar plates were inoculated in 3 ml of MH broth and incubated for about 16 h at 37° C. under agitation. 30 μl of this saturated culture were inoculated in 3 ml of fresh medium and allowed to grow until OD600 nm of about 0.6-0.8. Dilution to an OD600 nm of 0.002 was made in MH broth. Within a time laps not exceeding 30 min, 50 μl of this cell suspension was added to 50 μl of MH broth (containing or not the peptide/antibiotic diluted in MH broth) in wells of a 96-well round bottom microwell plate (Greiner; final cell density about 2 to 5×10^5 cfu/ml). Plates were incubated at 37° C. for 18-24 h and final turbidity of each well was measured at 620 nm using a Multiskan FC microplate reader (Thermo Scientific). MIC was defined as the minimal antibiotic concentration that result in no increase of turbidity at that time. Each MIC determination was performed in duplicate and at least in two independent experiments. Plating of 75 μl of the content of the wells of interest on LB Agar plates was used to determine the MBC that is defined by a decrease of at least 99.9% of cell viability as compared to the number of viable cells in the inoculum (about 2 to 5×10^4 cfu).
The antimicrobial activities of these peptides have been tested against the E. coli ATCC 25922 (DSM 1103) strain in 1× Mueller-Hinton broth as mentioned above.
The antimicrobial activities of these peptides and controls have been tested against the E. coli ATCC 25922 (DSM 1103) strain in 1× Mueller-Hinton broth.

E. coli = conditions: cited from earlier work
E. coli D22 cells = conditions: FITC staining after exposure to equal amounts, FIG. 1
Protocol: FIG. 1 concerns the analysis of peptide penetration into E. coli cells. (a) Fluorescence microscopy of E. coli cells exposed to the three different FITC labeled peptides.
In order to analyse the penetration capacity of the peptides in E. coli D22 cells, FITC-labeled peptides were added to 1 ml of bacterial cultures (OD600=0.8) at a final concentration of 8 μg/ml. The cells were allowed to acquire the peptides for 1 h at 37° C., washed 3 times with 0.5 ml PBS, fixed with 1% formaldehyde solution in PBS for 45 min at room temperature, washed 3 times with 0.5 ml PBS and finally resuspended in 50 μl PBS. Cells were visualized using a Leica DM5500 microscope equipped with a 100× objective and images were processed using Fiji software. One-way ANOVA statistical analysis was performed with the R package.

E coli β SC = biological target: T2, E coli β SC (Escherichia coli, UniProt P0A988); assay: Co-immunoprecipitation of FITC peptides with E. coli β SC; format: cell-based; conditions: E. coli D22 cells, 1 hour, 16 μM FITC labelled peptide, FIG. 4
T2 construct: endogenous in cells; host or cells: E. coli D22
T2 sequence (P0A988 whole entry): as the sequence (P0A988 whole entry) above
Protocol: FIG. 4 concerns the co-immunoprecipitation of FITC-K-Py-P7 peptide with the E coli β SC. E. coli D22 cells were incubated for 1 hour with or without 16 μM of the indicated FITC labelled peptide (lanes 1 and 5: no peptide; lanes 2 and 6: FITC-K-Pyr; lanes 3 and 7: FITC-K-Py-P7Scr; lanes 4 and 8: FITC-K-Py-P7). Lanes 1-4: 5% of the pre-cleared extracts were loaded as input controls. Lanes 5: Ig G sepharose beads pull down of the pre-cleared extracts not exposed to anti-FITC antibody. Lanes 6 to 8: Ig G sepharose beads pull down of the pre-cleared extracts previously incubated with FITC-labelled peptides and then exposed to anti-FITC antibody. Lanes 9-11: purified native β SC protein (lane 9: 5 ng; lane 10: 10 ng; lane 11: 20 ng). Upper image: western blot using the Ab 246, β SC specific monoclonal antibody. Lower image: total protein staining of the same membrane. M: Molecular weight markers.

[3] = ITC 25° C., E. coli SC (beta ring)
[4] = ITC 30° C. (303.15 K), Table 2A, ^EcSC, Ni = no specific interaction
[5] = ITC 30° C., Table 2A, ^EcSC, Ni = no specific interaction

SMILES	ΔG [1, 3]	ΔH [1, 3]	ΔH [1, 4]	ΔH ([1]; ITC 30° C., E.coli SC, specificity comparison with PCNA)	ΔG [1, 5]	−TΔS [1, 5]	Kd ([1]; dissociation constant (Kd) for ^EcSC, at 30° C.)	fold increase of affinity for ^EcSC compared to natural SC binding peptide (RQLVLGL) ([1]; versus RQLVLGL from E. coli DNA polymerase IV)	interaction with Human PCNA, in words (Human PCNA)	interaction with ^EcSC, in words ([1]; ITC 30° C.)	ΔH (kcal/mole) [1, 4]	Kd (nM) [1, 5]	ΔG (kcal/mole) [1, 5]	−TΔS (kcal/mole) [1, 5]	MIC [2]	MIC of previous reports (E. coli)	MIC of previous reports (E. coli; other E. coli strains and/or culture media)	entry into E. coli cells, times less efficiently than P122 (E. coli D22 cells)	binding of SC within the bacterial cytoplasm (co-immunoprecipitation), in words (E coli β SC)
CC(=O)N[C@@H](CCC(N)=O)C(=O)N[C@@H](CC1CCCCC1)C(=O)N[C@@H](CC(=O)O)C(=O)N[C@@H](CC(C)C)C(=O)N[C@@H](Cc1ccccc1)C(=O)O [Peptide P7, Ac-QChaDLF-OH, reference compound] (Ac-Q[Cha]DLF-OH)	-38.5 kJ/mol	-64.4 kJ/mol	-57.3 kJ/mol	-50.42 kJ/mol	-37.7 kJ/mol	19.7 kJ/mol	0.4 µM	50 fold	no interaction could be detected	–	–	–	–	–	–	–	–	–	–
CC[C@H](C)[C@H](NC(=O)[C@@H](CCCNC(=N)N)NC(=O)[C@H](CCCNC(=N)N)NC(=O)[C@@H]1CCCN1C(=O)[C@@H]1CCCN1C(=O)[C@H](CCCNC(=N)N)NC(=O)[C@@H]1CCCN1C(=O)[C@H](CCCNC(=N)N)NC(=O)[C@@H]1CCCN1C(=O)[C@H](CC(C)C)NC(=O)[C@H](Cc1ccc(O)cc1)NC(=O)[C@@H]1CCCN1C(=O)[C@@H]1CCCN1C(=O)[C@H](CCCCN)NC(=O)[C@H](CC(=O)O)NC(=O)[C@@H](N)C(C)C)C(=O)N[C@@H](Cc1ccc(O)cc1)C(=O)N[C@@H](CC(N)=O)C(=O)N[C@H](CCCNC(=N)N)C(N)=O [Peptide P28, reference compound] (H-VDKPPYLPRPRPPR[dR]IYN[dR]-NH2; N-terminus assumed)	–	–	–	–	–	–	–	–	–	do not interact	Ni	Ni	Ni	Ni	2 to 8 µM	0.82 µM	2 mg/L	–	–
CC[C@H](C)[C@H](NC(=O)[C@@H](CCCNC(=N)N)NC(=O)[C@H](CCCNC(=N)N)NC(=O)[C@@H]1CCCN1C(=O)[C@@H]1CCCN1C(=O)[C@H](CCCNC(=N)N)NC(=O)[C@@H]1CCCN1C(=O)[C@H](CCCNC(=N)N)NC(=O)[C@@H]1CCCN1C(=O)[C@H](CC(C)C)NC(=O)[C@H](Cc1ccc(O)cc1)NC(=O)[C@@H]1CCCN1C(=O)[C@@H]1CCCN1C(=O)[C@H](CCCCN)NC(=O)[C@H](CC(=O)O)NC(=O)[C@@H](N)C(C)C)C(=O)N[C@@H](Cc1ccc(O)cc1)C(=O)N[C@@H](CC(N)=O)C(=O)N[C@H](CCCNC(=N)N)C(=O)N[C@@H](CC(N)=O)C(=O)NCC(=O)N1CCC[C@H]1C(=O)N[C@@H](CCCNC(=N)N)C(=O)N[C@@H](CCC(N)=O)C(=O)N[C@@H](CC1CCCCC1)C(=O)N[C@@H](CC(=O)O)C(=O)N[C@@H](CC(C)C)C(=O)N[C@@H](Cc1ccccc1)C(=O)O [Peptide P30] (H-VDKPPYLPRPRPPR[dR]IYN[dR]NGPRQ[Cha]DLF-OH)	-38.5 kJ/mol	-61.1 kJ/mol	-56.5 kJ/mol	–	-38.8 kJ/mol	17.6 kJ/mol	–	–	–	as efficiently as P7 alone	–	–	–	–	16 to 32 µM	–	–	–	–
CC[C@H](C)[C@H](NC(=O)[C@@H](CCCNC(=N)N)NC(=O)[C@H](CCCNC(=N)N)NC(=O)[C@@H]1CCCN1C(=O)[C@@H]1CCCN1C(=O)[C@H](CCCNC(=N)N)NC(=O)[C@@H]1CCCN1C(=O)[C@H](CCCNC(=N)N)NC(=O)[C@@H]1CCCN1C(=O)[C@H](CC(C)C)NC(=O)[C@H](Cc1ccc(O)cc1)NC(=O)[C@@H]1CCCN1C(=O)[C@@H]1CCCN1C(=O)[C@H](CCCCN)NC(=O)[C@H](CC(=O)O)NC(=O)[C@@H](N)C(C)C)C(=O)N[C@@H](Cc1ccc(O)cc1)C(=O)N[C@@H](CC(N)=O)C(=O)N[C@H](CCCNC(=N)N)C(=O)N[C@@H](CC(N)=O)C(=O)NCC(=O)N1CCC[C@H]1C(=O)N[C@@H](CCCNC(=N)N)C(=O)N[C@@H](CC1CCCCC1)C(=O)N[C@@H](Cc1ccccc1)C(=O)N[C@@H](CCC(N)=O)C(=O)N[C@@H](CC(C)C)C(=O)N[C@@H](CC(=O)O)C(=O)O [Peptide P120] (H-VDKPPYLPRPRPPR[dR]IYN[dR]NGPR[Cha]FQLD-OH)	–	–	–	–	–	–	–	–	–	fail to interact	Ni	Ni	Ni	Ni	–	–	–	–	–
CC[C@H](C)[C@H](NC(=O)[C@@H]1CCCN1C(=O)[C@H](CCCNC(=N)N)NC(=O)[C@@H]1CCCN1C(=O)[C@@H]1CCCN1C(=O)[C@@H](NC(=O)[C@@H]1CCCN1C(=O)[C@H](CCCNC(=N)N)NC(=O)[C@@H]1CCCN1C(=O)[C@H](CC(C)C)NC(=O)[C@H](Cc1ccc(O)cc1)NC(=O)[C@H](CO)NC(=O)CNC(=O)[C@H](CCCCN)NC(=O)[C@H](CC(=O)O)NC(=O)[C@@H](NC(=O)[C@H](CCCCN)NC(=O)c1ccc2c(c1)C(=O)OC21c2ccc(O)cc2Oc2cc(O)ccc21)C(C)C)[C@@H](C)O)C(=O)N[C@@H](Cc1ccc(O)cc1)C(=O)N[C@@H](CC(N)=O)C(=O)N[C@@H](CCCNC(=N)N)C(=O)N[C@@H](CC(N)=O)C(=O)NCC(=O)N1CCC[C@H]1C(=O)N[C@@H](CCCNC(=N)N)C(=O)N[C@@H](CCC(N)=O)C(=O)N[C@@H](CC1CCCCC1)C(=O)N[C@@H](CC(=O)O)C(=O)N[C@@H](CC(C)C)C(=O)N[C@@H](Cc1ccccc1)C(=O)O [Peptide P150]	–	–	-72 kJ/mol	–	-37.6 kJ/mol	34.4 kJ/mol	–	–	–	similarly interacts	–	–	–	–	–	–	–	about 3 times	can efficiently bind SC
